Values after ≈ are worked out from the molar mass of the structure shown.
Experiments:
Assay type in all cases: cell-based, human
[1] = system: MCF7 cell line; assay: MTT assay, MCF7 cell line; details: 24 hr treatment, in % (unit assumed); for Cytotoxicity at 5 µg/l: MCF7, 5 µg/l; for Cytotoxicity at 10 µg/l: MCF7, 10 µg/l; for Cytotoxicity at 20 µg/l: MCF7, 20 µg/l
How it was run: (§1)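 Cells in RPMI-1640 with 10% FBS were seeded at 1.0x10^4 cells/well and cultured 48 h, then exposed to compound for 24 hr. Viability was measured by MTT reduction (4 hr), with formazan dissolved in DMSO and read at 570 nm, relative to untreated cells. Values are means of three independent triplicate experiments.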

[2] = system: HCT-116 cell line; assay: MTT assay, HCT-116 cell line; details: for Cytotoxicity at 5 µg/l: HCT116, 5 µg/l; for Cytotoxicity at 5 µg/l / Cytotoxicity at 10 µg/l / Cytotoxicity at 20 µg/l: MTT, 24 hr treatment, in % (unit assumed); for Cytotoxicity at 10 µg/l: HCT116, 10 µg/l; for Cytotoxicity at 20 µg/l: HCT116, 20 µg/l; for IC50: Homo sapiens, HCT-116, HCT116, MTT, read-out: IC50 (drug concentration that inhibited 50% of cell proliferation)
How it was run: as §1

[3] = system: HepG2 cells; assay: Annexin V-FITC apoptosis assay; details: for Apoptosis Early / Apoptosis Late / Necrosis: HepG2, 48 h, Annexin V-FITC/PI; for increase of early apoptosis ratio / increase of late apoptosis rate: HepG2, compared with untreated control cells
Experimental: HepG-2 cells were harvested and incubated with compounds 7b, 15b, 16a and 16c separately for 48 h. Then, the cells were collected and washed with PBS two successive times followed by centrifugation. After that, the cells were treated with Annexin V-FITC and propidium iodide (PI) using the apoptosis detection kit (BD Biosciences and Annexin V-FITC and PI binding were analyzed by a flow cytometer.
Early and late apoptosis was determined after treatment of HepG2 cells with compounds 7b, 15b, 16a and 16c compared with untreated control cells. The late apoptosis rate increased by about 13, 20, 4 and 3 times, respectively, showing a higher efficiency than the early apoptosis ratio 5, 2, 8 and 6 times, respectively.
As mentioned above, HepG-2 cells were collected and incubated separately with compounds 7b, 15b, 16a and 16c for 48 hr. Cells were then collected and washed twice consecutively with PBS and centrifuged. After that, the cells were treated with Annexin V-FITC and propidium iodide (PI) using an apoptosis detection kit (BD Biosciences, San Jose, CA) according to the manufacturer's instructions. The biding of Annexin V-FITC and PI was analyzed by ﬂow cytometer.

IC50 [2] [ng/mL]	Structure (SMILES)	Cytotoxicity at 5 µg/l [1]	Cytotoxicity at 10 µg/l [1]	Cytotoxicity at 20 µg/l [1]	Cytotoxicity at 5 µg/l [2]	Cytotoxicity at 10 µg/l [2]	Cytotoxicity at 20 µg/l [2]	Apoptosis Early [3] [%]	Apoptosis Late [3] [%]	Necrosis [3] [%]	increase of early apoptosis ratio [3] [times]	increase of late apoptosis rate [3]	apoptosis-inducing effect ([3]; HepG2, as stated in the abstract) [%]
4.5 (≈ 0.0123 µM)	COc1ccc(NN=C2C(=O)NC(=O)c3c2nn2c(O)cc(C)nc32)cc1 [Compound 16c, 4-Hydroxy-7-(2-(4-methoxyphenyl)hydrazono)-2-methylpyrido[4ʹ,3ʹ:3,4]pyrazolo[1,5-a]pyrimidine-8,10(7H,9H)-dione]	56.81	62.79	79.61	55.98	78.34	99.23	6.31	3.20	2.56	6	~3 times	–
2.49 (≈ 0.00714 µM)	COc1ccc(C=C2C(=O)NC(=O)c3c2nn2c(C)cc(C)nc32)cc1 [Compound 7b]	60.48	79.12	95.03	67.87	70.12	91.94	5.71	13.72	5.46	5	about 13 times	34.70
4.37 (≈ 0.013 µM)	Cc1cc(O)n2nc3c(c2n1)C(=O)NC(=O)C3=NNc1ccccc1 [Compound 16a, 4-Hydroxy-2-methyl-7-(2-phenylhydrazono)pyrido[4ʹ,3ʹ:3,4]pyrazolo[1,5-a]pyrimid-ine-8,10(7H,9H)-dione]	55.09	57.34	77.25	54.16	74.90	87.26	8.26	4.32	2.75	8	~4 times	–
